“Also recorded” adds a separate entry of the source. Like-named read-outs stand apart in the source and are kept apart here.
Columns and labels:
Alpha1a = molecular target: T1, Alpha1a (Homo sapiens, UniProt P35348); assay: PDSP competitive binding assay
T1 sequence (P35348 1-466): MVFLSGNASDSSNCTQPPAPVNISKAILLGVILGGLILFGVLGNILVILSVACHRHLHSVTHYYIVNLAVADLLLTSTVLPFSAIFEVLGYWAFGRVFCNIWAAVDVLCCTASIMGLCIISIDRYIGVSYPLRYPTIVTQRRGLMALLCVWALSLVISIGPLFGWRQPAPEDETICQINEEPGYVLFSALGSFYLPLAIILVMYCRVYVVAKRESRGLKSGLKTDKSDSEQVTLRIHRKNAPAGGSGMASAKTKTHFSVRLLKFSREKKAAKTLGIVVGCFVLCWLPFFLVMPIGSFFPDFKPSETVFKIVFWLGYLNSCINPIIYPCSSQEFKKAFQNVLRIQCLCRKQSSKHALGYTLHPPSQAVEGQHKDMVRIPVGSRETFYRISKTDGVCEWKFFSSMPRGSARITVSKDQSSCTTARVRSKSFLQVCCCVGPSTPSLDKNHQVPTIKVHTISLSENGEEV

KOR = KOR (Homo sapiens, UniProt P41145); assay: PDSP competitive binding assay
[1] = system: MGO-induced mechanical hypersensitivity, wild-type mice; assay: Methylglyoxal-induced mechanical hypersensitivity; assay type: in vivo, mouse; settings: MGO 20 ng intraplantar; FEM-1689 20 mg/kg IV or ISRIB 2.5 mg/kg IP 24 h after MGO
mouse DRG neurons = assay: Neurite outgrowth, Sholl analysis; assay type: cell-based; settings: 100 nM, wild-type neurons
Description: Sholl analysis was performed using the Neuroanatomy plugin in ImageJ according to the authors’ recommendations ([77]). Only solitary cells were used for analysis. The area under the curve was calculated using GraphPad Prism. More details are available in SI Appendix. […]
gently layered onto 3 mL of 10% bovine serum albumin (BSA, BioPharm #71- 040-002) in HBSS in a 15 ml falcon tube. T his BSA gradient containing the cells was centrifuged at 900g for 5 min at room temperatur e.
The pellet containing the cells was resuspended in Br ainPhys media (STEMCell #05790) containing 2% […]
1% Gluta Max (Gibco # 350 5 0061). Hu man DRG ne uron s were plated a nd grown o n glass coverslips coate d with po ly-D-lysine (Sigma #P7405). C ultured D RG neurons were plated for 24 hours before being treated.
Methylglyoxal (Sigma- Aldrich #M0252) and F EM- 1689 were serially diluted in media.
Mouse samples - DRG cultures […]
anesthesia and decapitated. […]
section above with minor differences.
Mouse DRG neurons were grown in
SAS-0132 and DKR-1677 were […]
dissolved in 100% DMSO to a final concentr ation of 200mM and stored at - 20 °C. and DKR-1677 were serially diluted in media. […]
Cultured mouse DRG neur ons from wild- type and TMEM97KO animals were treated w ith either vehicle or FEM-1689 (100 nM). […] The area under the curve was calculated using Graph Pad […]

MOR = MOR (Homo sapiens, UniProt P35372); assay: PDSP competitive binding assay; settings: 10 µM test article; read-out: Ki: primary assay inhibition of radioligand binding, MOR

For `OCCCN1CC[C@@H]2C[C@H]1c1cc(-c3ccc(C(F)(F)F)cc3)ccc12` [FEM-1689], the “LogKi, Alpha1A” value (Alpha1a; dose response curve, given as LogKi with negative sign) was -5.70, the Ki (Alpha1a; read-out: Alpha1a Ki, single determination) was 1.99 µM and the Ki (Alpha1a; read-out: Ki, Alpha1A, dose response curve) was 1.99 µM. For the same compound, the Ki (KOR; Run 1, read-out: Ki, KOR) was 4.7 µM, the Ki (KOR; Run 2, read-out: Ki, KOR) was 9.49 µM and the Ki (KOR; read-out: KOR Ki) was 7.09 ± 2.4 µM. For the same compound, the MGO-induced mechanical hypersensitivity [1] was “completely reversed MGO-induced mechanical hypersensitivity; also recorded: alleviated mechanical hypersensitivity for the duration of the pain state”, the “neurite outgrowth (Sholl analysis)” value (mouse DRG neurons) was “increase in the number and complexity of neurites in wild-type neurons; also recorded: promoted neurite outgrowth in wild-type neurons” and the inhibition at 10 µM (MOR) was < 50%.

Reference: article PMC10756276, “Highly specific σ2R/TMEM97 ligand FEM-1689 alleviates neuropathic pain and inhibits the integrated stress response” (Proceedings of the National Academy of Sciences of the …, 2023)
